Molecular target: T1, Dopamine beta hydroxylase (Homo sapiens, UniProt P09172)
T1 construct: 125 μl of plasma; tissue Instituto Português do Sangue Transplantação; host or cells: human plasma from healthy donors
T1 sequence (P09172 40-617 limits assumed): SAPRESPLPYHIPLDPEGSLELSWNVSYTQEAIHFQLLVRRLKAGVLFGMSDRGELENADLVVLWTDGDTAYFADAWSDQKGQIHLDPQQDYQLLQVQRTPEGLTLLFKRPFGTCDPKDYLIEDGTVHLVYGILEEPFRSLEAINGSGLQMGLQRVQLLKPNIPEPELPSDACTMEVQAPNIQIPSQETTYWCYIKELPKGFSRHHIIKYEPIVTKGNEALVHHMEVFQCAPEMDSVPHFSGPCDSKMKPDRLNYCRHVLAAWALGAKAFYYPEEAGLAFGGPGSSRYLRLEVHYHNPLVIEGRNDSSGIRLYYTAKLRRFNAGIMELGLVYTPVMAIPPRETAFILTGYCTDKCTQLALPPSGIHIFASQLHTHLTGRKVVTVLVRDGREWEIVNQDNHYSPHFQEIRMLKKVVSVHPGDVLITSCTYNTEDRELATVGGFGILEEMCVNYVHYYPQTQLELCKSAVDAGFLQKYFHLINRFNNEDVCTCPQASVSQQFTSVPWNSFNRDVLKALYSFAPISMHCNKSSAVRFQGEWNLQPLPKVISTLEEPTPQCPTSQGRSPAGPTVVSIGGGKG
Assay: Dopamine beta hydroxylase activity in human plasma
Type: biochemical
Details: for Plasma (0.1 μM), activity in % of control: inhibitor 0.1 μM; for Plasma (1 μM), activity in % of control: inhibitor 1 μM; for Plasma (0.01 μM), activity in % of control: inhibitor 0.01 μM
In short: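 Octopamine production from tyramine over 45 min at 37° C, measured photometrically at 330 nm after SCX extraction and periodate oxidation against an octopamine standard curve, indicates plasma DβH activity. Compounds tested at final 10, 100 and 1000 nM in human plasma, pH 5.0 cofactor buffer, 10 min preincubation; results as % of control.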

Row | Plasma (0.1 μM), activity in % of control | Plasma (1 μM), activity in % of control | Plasma (0.01 μM), activity in % of control | SMILES
1 | 5.4 % of control | 1.5 % of control | – | Cl.O=C(Cc1[nH]c(=S)n2c1C[C@@H](c1c(F)ccc(Cl)c1F)C2)NCc1cccnc1 [Example 109, (S)-2-(6-(3-chloro-2,6-difluorophenyl)-3-thioxo-2,5,6,7-tetrahydro-3H-pyrrolo[1,2-c]imidazol-1-yl)-N-(pyridin-3-ylmethyl)acetamide Hydrochloride]
2 | 52.4 % of control | 9.7 % of control | – | O=C(Cc1[nH]c(=S)n2c1C[C@@H](c1c(F)ccc(Cl)c1F)C2)N1CCCC1 [Example 110, (S)-2-(6-(3-chloro-2,6-difluorophenyl)-3-thioxo-2,5,6,7-tetrahydro-3H-pyrrolo[1,2-c]imidazol-1-yl)-1-(pyrrolidin-1-yl)ethan-1-one]
3 | 36.7 % of control | – | 89.6 % of control | O=C(Cc1[nH]c(=S)n2c1C[C@@H](c1c(F)ccc(Cl)c1F)C2)N1CCC(F)(F)CC1 [Example 111, (S)-2-(6-(3-chloro-2,6-difluorophenyl)-3-thioxo-2,5,6,7-tetrahydro-3H-pyrrolo[1,2-c]imidazol-1-yl)-1-(4,4-difluoropiperidin-1-yl)ethan-1-one]
4 | 0 % of control | – | 9.9 % of control | O=C(Cc1[nH]c(=S)n2c1C[C@@H](c1c(F)ccc(Cl)c1F)C2)NC1CCS(=O)(=O)CC1 [Example 112, (S)-2-(6-(3-chloro-2,6-difluorophenyl)-3-thioxo-2,5,6,7-tetrahydro-3H-pyrrolo[1,2-c]imidazol-1-yl)-N-(1,1-dioxidotetrahydro-2H-thiopyran-4-yl)acetamide]
5 | 25.6 % of control | – | 85.1 % of control | O=C(Cc1[nH]c(=S)n2c1C[C@@H](c1c(F)ccc(Cl)c1F)C2)NCC(F)(F)F [Example 113, (S)-2-(6-(3-chloro-2,6-difluorophenyl)-3-thioxo-2,5,6,7-tetrahydro-3H-pyrrolo[1,2-c]imidazol-1-yl)-N-(2,2,2-trifluoroethyl)acetamide]
6 | 7.5 % of control | – | 58.4 % of control | CS(=O)(=O)CCNC(=O)Cc1[nH]c(=S)n2c1C[C@@H](c1c(F)ccc(Cl)c1F)C2 [Example 114, (S)-2-(6-(3-chloro-2,6-difluorophenyl)-3-thioxo-2,5,6,7-tetrahydro-3H-pyrrolo[1,2-c]imidazol-1-yl)-N-(2-(methylsulfonyl)ethyl)acetamide]
7 | 0 % of control | – | 48.0 % of control | Cl.O=C(Cc1[nH]c(=S)n2c1C[C@@H](c1c(F)ccc(Cl)c1F)C2)NCCN1CCC(F)(F)CC1 [Example 115, (S)-2-(6-(3-chloro-2,6-difluorophenyl)-3-thioxo-2,5,6,7-tetrahydro-3H-pyrrolo[1,2-c]imidazol-1-yl)-N-(2-(4,4-difluoropiperidin-1-yl)ethyl)acetamide Hydrochloride]
8 | 68.8 % of control | – | 93.8 % of control | O=C(Cc1[nH]c(=S)n2c1C[C@H](c1c(F)ccc(Br)c1F)C2)N[C@@H]1CCOC1 [Example 116, 2-((R)-6-(3-bromo-2,6-difluorophenyl)-3-thioxo-2,5,6,7-tetrahydro-3H-pyrrolo[1,2-c]imidazol-1-yl)-N—((R)-tetrahydrofuran-3-yl)acetamide]
9 | 43.0 % of control | – | 74.5 % of control | O=C(Cc1[nH]c(=S)n2c1C[C@H](c1c(F)ccc(Br)c1F)C2)N1CCC(F)(F)CC1 [Example 117, (R)-2-(6-(3-bromo-2,6-difluorophenyl)-3-thioxo-2,5,6,7-tetrahydro-3H-pyrrolo[1,2-c]imidazol-1-yl)-1-(4,4-difluoropiperidin-1-yl)ethan-1-one]
10 | 49.0 % of control | – | 89.2 % of control | CS(=O)(=O)CCNC(=O)Cc1[nH]c(=S)n2c1C[C@H](c1c(F)ccc(Br)c1F)C2 [Example 118, (R)-2-(6-(3-bromo-2,6-difluorophenyl)-3-thioxo-2,5,6,7-tetrahydro-3H-pyrrolo[1,2-c]imidazol-1-yl)-N-(2-(methylsulfonyl)ethyl)acetamide]
11 | 87.7 % of control | – | 118.2 % of control | O=C(Cc1[nH]c(=S)n2c1C[C@H](c1c(F)ccc(Br)c1F)C2)NCCO [Example 119, (R)-2-(6-(3-bromo-2,6-difluorophenyl)-3-thioxo-2,5,6,7-tetrahydro-3H-pyrrolo[1,2-c]imidazol-1-yl)-N-(2-hydroxyethyl)acetamide]
12 | 86.2 % of control | – | 132.5 % of control | O=C(Cc1[nH]c(=S)n2c1C[C@H](c1c(F)ccc(Br)c1F)C2)NC1CCCC1CO (stereo partly drawn) [Example 120, 2-((R)-6-(3-bromo-2,6-difluorophenyl)-3-thioxo-2,5,6,7-tetrahydro-3H-pyrrolo[1,2-c]imidazol-1-yl)-N-(2-(hydroxymethyl)cyclopentyl)acetamide]
13 | 62.6 % of control | – | 79.3 % of control | O=C(Cc1[nH]c(=S)n2c1C[C@H](c1c(F)ccc(Br)c1F)C2)N1CCCC(O)C1 (stereo partly drawn) [Example 121, 2-((R)-6-(3-bromo-2,6-difluorophenyl)-3-thioxo-2,5,6,7-tetrahydro-3H-pyrrolo[1,2-c]imidazol-1-yl)-1-(3-hydroxypiperidin-1-yl)ethan-1-one]
14 | 13.0 % of control | – | 70.8 % of control | CC(C)(C)OC(=O)N1CCC[C@@H]1CNC(=O)Cc1[nH]c(=S)n2c1C[C@@H](c1c(F)ccc(Br)c1F)C2 [Example 122, tert-butyl (R)-2-((2-((S)-6-(3-bromo-2,6-difluorophenyl)-3-thioxo-2,5,6,7-tetrahydro-3H-pyrrolo[1,2-c]imidazol-1-yl)acetamido)methyl)pyrrolidine-1-carboxylate]
15 | 6.3 % of control | – | 51.9 % of control | CS(=O)(=O)C1CCN(C(=O)Cc2[nH]c(=S)n3c2C[C@@H](c2c(F)ccc(Br)c2F)C3)CC1 [Example 123, (S)-2-(6-(3-bromo-2,6-difluorophenyl)-3-thioxo-2,5,6,7-tetrahydro-3H-pyrrolo[1,2-c]imidazol-1-yl)-1-(4-(methylsulfonyl)piperidin-1-yl)ethan-1-one]
16 | 3.3 % of control | – | 42.8 % of control | O=C(Cc1[nH]c(=S)n2c1C[C@@H](c1c(F)ccc(Br)c1F)C2)NCc1cccnc1 [Example 124, (S)-2-(6-(3-bromo-2,6-difluorophenyl)-3-thioxo-2,5,6,7-tetrahydro-3H-pyrrolo[1,2-c]imidazol-1-yl)-N-(pyridin-3-ylmethyl)acetamide]
17 | 43.7 % of control | – | 106.5 % of control | O=C(Cc1[nH]c(=S)n2c1C[C@H](c1c(F)ccc(Br)c1F)C2)N1CCS(=O)(=O)CC1 [Example 125, (R)-2-(6-(3-bromo-2,6-difluorophenyl)-3-thioxo-2,5,6,7-tetrahydro-3H-pyrrolo[1,2-c]imidazol-1-yl)-1-(1,1-dioxidothiomorpholino)ethan-1-one]

Source: patent US11434242B2, “Dopamine-b-hydroxylase inhibitors” (BIAL-PORTELA & Cª, S.A., priority 2017, dated 2022)
